Here are results for 49 compounds from patent US7745450B2, “Pyrazolo[4,3-d]pyrimidines, processes for their preparation and methods for therapy” (Institute of Experimental Botany, priority 2002, dated 2010).

The target of one assay is cdk1/cyclin B (CDC2) (Homo sapiens, UniProt P06493). The assay is described as follows: CDK inhibition assay, cdk1/cyclin B (CDC2) kinase, histone phosphorylation. Format: biochemical. As for the experimental part: Selected compounds were tested for cdk1/cyclin B and cdk2/cyclin E inhibitory activity to determine the basic relationships between their interaction energy of docked complex and the inhibitory activity. Cdk2/cyclin E complex was produced in SIP insect cells co-infected with appropriate baculoviral construct. The cells were harvested 70 hours post infection in lysis buffer (50 mM Tris 7.4 pH, 150 mM NaCl, 5 mM EDTA, 20 mM NaF, 1% Tween 20, protease inhibitors) for 30 min on ice and the soluble fraction was recovered by centrifugation at 14.000 g for 10 min. The protein extract was stored at −80° C. until use. The final point test system for kinase activity measurement was used to carry out experiments on the kinetics under linear conditions. The assay mixture contained 1 mg/ml histone (Sigma Type III-S), 15 μM ATP, 0.2 μCi [γ-^32P] ATP and tested compound in a final volume of 20 μl, all in reaction buffer: 50 mM Hepes 7.4 pH, 10 mM MgCl2, 5 mM EGTA, 10 mM 2-glycerolphosphate, 1 mM NaF, 1 mM DTT and protease inhibitors. […] The measurement of kinase inhibition employed the digital imaging analyzer BAS 1800. The kinase activity was expressed as a percentage of maximum activity and the IC50 value was determined by graphic analysis. The kinase activity is expressed as a percentage of maximum activity, the apparent inhibition constants are determined by graphic analysis from dose-response curves presented on FIG. 1.

The target in the next assay is IκB-α kinase. Description: IκB-α kinase inhibition, in vitro kinase assay. The class given is biochemical.
Assay [1] has as its system Cytokinin-dependent tobacco callus Nicotiana tabacum L. cv. Wisconsins 38. The assay is described as follows: Tobacco callus bioassay for cytotoxicity (herbicidal activity). The class given is cell-based. How it is done:
The novel compounds have also been tested in tobacco callus bioassay for cytotoxicity (herbicidal activity) and induction of cell death. The compounds to be tested were dissolved in dimethylsulfoxide (DMSO) and the solution brought up to 10^−3 M with distilled water. […] Cytokinin-dependent tobacco callus Nicotiana tabacum L. cv. Wisconsins 38 Murashige-Skoog medium, containing per 1 liter: 4 μmol nicotinic acid, 2.4 μmol pyridoxine hydrochloride, 1.2 μmol thiamine, 26.6 μmol glycine, 1.37 μmol glutamine, 1.8 μmol myo.inositol, 30 g of sucrose, 8 g of agar, […] α-naphthylacetic acid and 0.5 μmol 6-benzylaminopurine. Sub cultivation was carried out every three weeks. Fourteen days before the bioassay, the callus tissue was transferred to the media without 6-benzylaminopurine. Compounds were tested with two different concentrations of 6-benzylaminopurine (10^−5 M and 10^−6 M). Inhibitory growth activity was determined from the increase in fresh callus weight after four weeks of cultivation. Five replicates were prepared for each concentration tested and the entire test was repeated at least twice.

Where [2] appears, read: Nicotiana tabacum, 672 h, read-out: 10^−5 M BAP IC50, 10^−5 M 6-benzylaminopurine, four weeks.
[3] abbreviates: Nicotiana tabacum, 672 h, read-out: 10^−6 M BAP IC50, 10^−6 M 6-benzylaminopurine, four weeks.

Read-outs that look alike come from different tables or passages of the source.

Sequence of cdk1/cyclin B (CDC2) (P06493 whole entry, species assumed): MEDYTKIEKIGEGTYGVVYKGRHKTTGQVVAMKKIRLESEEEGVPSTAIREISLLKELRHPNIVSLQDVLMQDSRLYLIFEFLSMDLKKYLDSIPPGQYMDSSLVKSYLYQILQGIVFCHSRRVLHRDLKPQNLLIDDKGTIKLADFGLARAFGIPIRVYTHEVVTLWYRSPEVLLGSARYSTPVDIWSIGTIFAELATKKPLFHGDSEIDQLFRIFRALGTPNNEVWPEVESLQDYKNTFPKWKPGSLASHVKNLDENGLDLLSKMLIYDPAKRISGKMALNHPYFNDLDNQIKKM
Sequence of cdk1/cyclin B (CDC2) (P14635 whole entry partner, species assumed): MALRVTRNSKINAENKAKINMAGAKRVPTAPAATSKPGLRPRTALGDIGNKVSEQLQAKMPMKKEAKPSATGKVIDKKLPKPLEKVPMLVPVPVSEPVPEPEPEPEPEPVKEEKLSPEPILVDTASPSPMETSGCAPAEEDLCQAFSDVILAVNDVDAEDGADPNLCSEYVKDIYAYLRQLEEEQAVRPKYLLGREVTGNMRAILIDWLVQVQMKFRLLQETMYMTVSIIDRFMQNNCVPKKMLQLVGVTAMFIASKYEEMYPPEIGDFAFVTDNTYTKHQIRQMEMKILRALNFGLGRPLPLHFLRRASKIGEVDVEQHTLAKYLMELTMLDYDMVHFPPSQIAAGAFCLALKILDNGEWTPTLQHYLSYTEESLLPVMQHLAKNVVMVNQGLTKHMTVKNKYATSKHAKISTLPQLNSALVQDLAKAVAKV

For `CC(C)c1n[nH]c2c(Nc3cccc(Cl)c3)nc(NC3CCCCC3N)nc12` (centres unmarked), the IC50 (in general, the concentration that inhibits the measured activity by half) is 4 nM against cdk1/cyclin B (CDC2), 12 nM on IκB-α kinase, over 50000 nM in assay [1] (setting [2]) and 28000 nM in assay [1] (setting [3]).
As to `Cc1n[nH]c2c(NCc3ccccc3)nc(NC3CCCCC3N)nc12` (centres unmarked), the IC50 against cdk1/cyclin B (CDC2) is 30 nM; against IκB-α kinase, 90 nM; in assay [1] (setting [2]), over 50000 nM; in assay [1] (setting [3]), 48000 nM.
As for `CC(C)c1n[nH]c2c(Nc3cccc(Cl)c3)nc(NCCN)nc12`, the half-inhibitory concentration (IC50) against cdk1/cyclin B (CDC2) was 140 nM; against IκB-α kinase, 250 nM; in assay [1] (setting [2]), over 50000 nM; in assay [1] (setting [3]) it was 48000 nM.
`CC(=O)Oc1ccccc1CNc1nc(NCCO)nc2c(C)n[nH]c12`: the IC50 on cdk1/cyclin B (CDC2) was determined as 500 nM; against IκB-α kinase, 1200 nM.
Turning to `CC(=O)c1ccccc1CNc1nc(NCCO)nc2c(C)n[nH]c12`, the half-maximal inhibitory concentration (IC50) against cdk1/cyclin B (CDC2) is 10 nM; against IκB-α kinase, 50 nM.
The corresponding values for `Cc1n[nH]c2c(NCc3c(N)cccc3Cl)nc(NCCO)nc12` are 40 nM and 80 nM.
Consider `Cc1n[nH]c2c(NCc3cccc(Cl)c3O)nc(NCCO)nc12`, for which the IC50 at cdk1/cyclin B (CDC2) was determined as 10 nM; against IκB-α kinase, 30 nM.
The corresponding values for `COc1cccc(CNc2nc(NCCO)nc3c(C)n[nH]c23)c1O` are 10 nM and 40 nM.
The corresponding values for `Cc1cccc(CNc2nc(NCCO)nc3c(C)n[nH]c23)c1O` are 10 nM and 30 nM.
The corresponding values for `Cc1n[nH]c2c(NCc3ccccc3O)nc(NCCO)nc12` are 20 nM and 50 nM.
Regarding `Cc1n[nH]c2c(NCc3ccc(Cl)c(N)c3N)nc(NCCO)nc12`, the values for the half-inhibitory concentration (IC50) on cdk1/cyclin B (CDC2) and against IκB-α kinase were 600 nM and 700 nM, respectively.
Regarding `Cc1n[nH]c2c(NCc3ccc(Cl)c(O)c3O)nc(NCCO)nc12`, the IC50 was 9 nM against cdk1/cyclin B (CDC2) and 21 nM on IκB-α kinase.
The corresponding values for `COc1ccc(CNc2nc(NCCO)nc3c(C)n[nH]c23)c(O)c1O` are 8 nM and 28 nM.
As for `COc1cc(O)c(CNc2nc(NCCO)nc3c(C)n[nH]c23)cc1O`, the IC50 at cdk1/cyclin B (CDC2) came out at 7 nM; against IκB-α kinase it was 15 nM.
The like results for `Cc1n[nH]c2c(NCc3c(O)cc(Cl)cc3O)nc(NCCO)nc12` were, in that order, 5 nM and 12 nM.
The corresponding values for `COc1cc(O)c(CNc2nc(NCCO)nc3c(C)n[nH]c23)c(O)c1` are 4 nM and 9 nM.
For `CC(=O)Oc1cccc(CNc2nc(NCCO)nc3c(C)n[nH]c23)c1`, the IC50 against cdk1/cyclin B (CDC2) amounted to 400 nM; against IκB-α kinase it was 1700 nM.
The corresponding values for `CC(=O)c1cccc(CNc2nc(NCCO)nc3c(C)n[nH]c23)c1` are 40 nM and 90 nM.
The like results for `Cc1n[nH]c2c(NCc3ccc(Cl)c(N)c3)nc(NCCO)nc12` were, in that order, 200 nM and 800 nM.
The corresponding values for `Cc1n[nH]c2c(Nc3ccc(N)c(Cl)c3)nc(NCCO)nc12` are 12 nM and 29 nM.
`Cc1n[nH]c2c(NCc3cccc(O)c3)nc(NCCO)nc12`: the IC50 on cdk1/cyclin B (CDC2) was 80 nM; on IκB-α kinase, 240 nM.
The corresponding values for `Cc1n[nH]c2c(N(C)Cc3ccc(O)c(O)c3)nc(NCCO)nc12` are 700 nM and 900 nM.
The corresponding values for `CC(C)c1n[nH]c2c(NCc3ccccc3)nc(NCCO)nc12` are 1000 nM and 2300 nM.
On to `CC(C)c1n[nH]c2c(Nc3cccc(Cl)c3)nc(NCCCN)nc12`, for which the 50% inhibitory concentration (IC50) on cdk1/cyclin B (CDC2) was 20 nM; on IκB-α kinase, 80 nM; in assay [1] (setting [2]), over 50000 nM; in assay [1] (setting [3]) it was 45000 nM.
Take `Cc1n[nH]c2c(NCc3ccccc3)nc(NCCCO)nc12`: the concentration for half-maximal inhibition (IC50) at cdk1/cyclin B (CDC2) was determined as 700 nM; against IκB-α kinase, 1800 nM.
As for `CC(C)c1n[nH]c2c(Nc3cccc(Cl)c3)nc(NC3CCC(N)CC3)nc12` (centres unmarked), the IC50 is 1 nM at cdk1/cyclin B (CDC2), 12 nM at IκB-α kinase, over 50000 nM in assay [1] (setting [2]) and 25000 nM in assay [1] (setting [3]).
The corresponding values for `Cc1n[nH]c2c(NCc3ccccc3)nc(NC3CCC(N)CC3)nc12` (centres unmarked) are 20 nM, 50 nM, over 50000 nM and 43000 nM.
Consider `CC(C)c1n[nH]c2c(NCc3ccccc3)nc(N(CCO)CCO)nc12`, for which the 50% inhibitory concentration (IC50) turned out to be 400 nM at cdk1/cyclin B (CDC2) and 1100 nM at IκB-α kinase.
As to `Cc1n[nH]c2c(NCc3ccccc3)nc(N(CCO)CCO)nc12`, the half-inhibitory concentration (IC50) on cdk1/cyclin B (CDC2) turned out to be 900 nM; on IκB-α kinase it was 2100 nM.
With `CC(C)c1n[nH]c2c(Nc3cc(N)cc(Cl)c3)nc(N[C@@H](CO)C(C)C)nc12`, the IC50 was 8 nM on cdk1/cyclin B (CDC2), 15 nM on IκB-α kinase, 38000 nM in assay [1] (setting [2]) and 4200 nM in assay [1] (setting [3]).
The like results for `CC(C)c1n[nH]c2c(Nc3cccc(Cl)c3)nc(N[C@@H](CO)C(C)C)nc12` were, in that order, 4 nM, 9 nM, over 50000 nM and 11000 nM.
Consider `CC(C)c1n[nH]c2c(Nc3ccccc3)nc(N[C@@H](CO)C(C)C)nc12`, for which the half-inhibitory concentration (IC50) against cdk1/cyclin B (CDC2) came out at 1 nM; against IκB-α kinase, 3 nM; in assay [1] (setting [2]), 42000 nM; in assay [1] (setting [3]), 4800 nM.
In the case of `CC[C@H](CO)Nc1nc(NCc2ccccc2C(C)=O)c2[nH]nc(C(C)C)c2n1`, the half-inhibitory concentration (IC50) against cdk1/cyclin B (CDC2) amounted to 5 nM; against IκB-α kinase, 15 nM.
Regarding `CC[C@H](CO)Nc1nc(NCc2c(N)cccc2Cl)c2[nH]nc(C(C)C)c2n1`, the concentration for half-maximal inhibition (IC50) against cdk1/cyclin B (CDC2) was 12 nM; against IκB-α kinase, 3.5 nM; in assay [1] (setting [2]) it was over 50000 nM; in assay [1] (setting [3]), 29700 nM.
Turning to `CC[C@H](CO)Nc1nc(NCc2ccccc2O)c2[nH]nc(C(C)C)c2n1`, the results for the IC50 at cdk1/cyclin B (CDC2) and against IκB-α kinase were 8 nM and 12 nM, respectively.
For `CC[C@H](CO)Nc1nc(NCc2ccc(Cl)c(O)c2O)c2[nH]nc(C(C)C)c2n1`, the 50% inhibitory concentration (IC50) was determined as 3 nM on cdk1/cyclin B (CDC2) and 11 nM against IκB-α kinase.
As to `CC[C@H](CO)Nc1nc(NCc2ccc(OC)c(O)c2O)c2[nH]nc(C(C)C)c2n1`, the values for the IC50 against cdk1/cyclin B (CDC2) and on IκB-α kinase were 2 nM and 5 nM, respectively.
The corresponding values for `CC[C@H](CO)Nc1nc(NCc2cc(O)c(OC)cc2O)c2[nH]nc(C(C)C)c2n1` are 2 nM and 6 nM.
Consider `CC[C@H](CO)Nc1nc(NCc2c(O)cc(OC)cc2O)c2[nH]nc(C(C)C)c2n1`, for which the concentration for half-maximal inhibition (IC50) at cdk1/cyclin B (CDC2) is 0.8 nM; against IκB-α kinase, 3 nM.
The corresponding values for `CC[C@H](CO)Nc1nc(NCc2cccc(C(C)=O)c2)c2[nH]nc(C(C)C)c2n1` are 10 nM and 40 nM.
For the compound `CC[C@H](CO)Nc1nc(NCc2ccc(Cl)c(N)c2)c2[nH]nc(C(C)C)c2n1`, the IC50 on cdk1/cyclin B (CDC2) came out at 80 nM; at IκB-α kinase, 24 nM; in assay [1] (setting [2]), 25700 nM; in assay [1] (setting [3]), 1300 nM.
`CC[C@H](CO)Nc1nc(Nc2cccc(Cl)c2)c2[nH]nc(C(C)C)c2n1`: the concentration for half-maximal inhibition (IC50) is 4 nM on cdk1/cyclin B (CDC2); 45000 nM in assay [1] (setting [2]); over 50000 nM in assay [1] (read-out: 10^−5 M BAP IC50, 10^−5 M 6-benzylaminopurine, four weeks).
For `CC[C@H](CO)Nc1nc(NCc2ccc(O)c(O)c2)c2[nH]nc(C(C)C)c2n1`, the IC50 at cdk1/cyclin B (CDC2) was determined as 500 nM; on IκB-α kinase, 1100 nM.
The corresponding values for `CC(C)c1n[nH]c2c(NC(CO)c3ccccc3)nc(N[C@@H](CO)C(C)C)nc12` (mixture of isomers) are 60 nM and 150 nM.
The corresponding values for `CC[C@H](CO)Nc1nc(NC(CO)c2ccccc2)c2[nH]nc(C(C)C)c2n1` (mixture of isomers) are 90 nM and 210 nM.
As for `Cc1n[nH]c2c(NC(CO)c3ccccc3)nc(NCCO)nc12` (racemic), the IC50 worked out at 200 nM against cdk1/cyclin B (CDC2) and 400 nM at IκB-α kinase.
The like results for `Cc1n[nH]c2c(Nc3ccccc3)nc(NCCO)nc12` [2-hydroxyethylamino; anilino; methyl] were, in that order, 90 nM and 210 nM.
The like results for `Cc1n[nH]c2c(NCc3ccccc3)nc(NCCO)nc12` [2-hydroxyethylamino; benzylamino; methyl] were, in that order, 4000 nM and 9300 nM.
For `CC(C)c1n[nH]c2c(NCc3ccccc3)nc(NC3CCC(N)CC3)nc12` (centres unmarked) [Compound 268, 3-isopropyl-5-(4-aminocyclohexylamino)-7-benzylamino-pyrazolo[4,3-d]pyrimidine], the values for the IC50 (against cdk1/cyclin B (CDC2); in assay [1] (setting [2]); in assay [1] (setting [3])) were 5 nM, over 50000 nM and 32000 nM, respectively.
